In this experiment the test system is ERα. The experiment can be described thus: Immunoblot of ERα expression in drug-treated WBP2-Y192-231E mutant-expressing MCF7. Type of experiment: cell-based, human. The settings on record: Y192-231E-expressing MCF7; 2 μM Tam and/or 15 μM FH535; day 2-4 post-treatment. As for the experimental part: For cells co-transfected ERE-luciferase, they were either left alone or stimulated with 50 ng/ml Wnt3a ligand for 16 hrs. TCF/ERα luciferase activities in various conditions were then assayed. **P<0.01, ***P<0.001, Student's t-test (2-tailed). […] Cell numbers were measured.
Their expression levels were quantified in three independent experiments and the averages were presented relative to actin. […] For cells co-transfected ERE luciferase, they were either left alone or stimulated with 50 ng/ml Wnt3a ligand for 16 hrs. TCF(C)/ER[…](D) luciferase activities in various conditions were then assayed and analyzed in relative to untreated vector control. **P<0.01, ***P<0.001, Student's t-test (2-tailed). […] Cell numbers were measured daily and compared in relative to vehicle treated vector-expressing cells on Day 0. […] Cell numbers were measured and compared in relative to vehicle-treated cells. […] Cell numbers were measured on day 2 and day 4 and compared in relative to vehicle-treated control at each day (Top Panel). These treated cells were harvested for IB analysis with antibodies indicated (Bottom Panel).
First, we exposed WBP2 phospho-mimic expressing MCF7 cells to serial concentrations of fulvestrant (0.1 nM, 1 nM, 10 nM, 100 nM and 1 μM) and probed for ERα expression to determine the effective working concentration. […] Next, we compared the growth and proliferation of WBP2 phospho-mimic mutant expressing MCF7 in the presence of 100 nM fulvestrant or 15 μM FH535.

Each structure is given as a SMILES string. Entries after “also recorded” stand apart in the source; their conditions may differ.

As for `Cc1cc([N+](=O)[O-])ccc1NS(=O)(=O)c1cc(Cl)ccc1Cl` [FH535], the ERα expression result is reported as “significantly reduced; also recorded: reducing”.
